The values that follow come from PMC10313671, “Accelerating the prediction and discovery of peptide hydrogels with human-in-the-loop” (Nature Communications, 2023).

Each structure is given as a SMILES string. Where a SMILES comes first, the peptide text is derived from it.

The first series can be described thus: Peptide hydrogel formation, vial-inverting method. Type of series: physicochemical. The settings on record: 120 mM peptide (highest tested) in ultrapure water; pH 6.5-8.5 (1 N NaOH), ultrasonication, standing 48 h; vial-inverting method; precipitate, sol, suspension = no gel. Set-up: key to EXP / GELATION: 0: no hydrogel; 1: hydrogel. On the procedure:
After validating the efficiency of APHC in predicting tetrapeptide hydrogels, we detailed the phase state of 165 synthesized tetrapeptides and the observed assembly behavior in an aqueous solution.
This work defines hydrogel formation as a self-supporting, non-flowing mixture of water and hydrogelator by the vial-inverting method. All purified tetrapeptides were dissolved in ultrapure water (to form a 30 mM solution initially), followed by the stepwise addition of 1 N NaOH solution to adjust the overall aqueous pH to 6.5–8.5. Meanwhile, a short-term ultrasonication treatment was applied after each pH adjustment to facilitate peptide solubilization and speed up peptide self-assembly. […] The mixture was allowed to stand in for another 48 h for complete hydrogelation. Upon the absence of gelation phenomenon during the aforementioned loops, we increased the peptide concentration (60 mM, 90 mM, and 120 mM were selected) and re-started such gelation operation loop to explore their gelation feasibility.
`CSCC[C@H](NC(=O)[C@H](CCSC)NC(=O)[C@H](Cc1ccccc1)NC(=O)[C@@H](N)C(C)C)C(=O)O` [VFMM] (H-VFMM-OH): the State entry was “gel”.

In the case of `C[C@H](N)C(=O)N[C@@H](C)C(=O)N[C@@H](C)C(=O)N[C@@H](C)C(=O)O` [AAAA] (H-AAAA-OH), the State entry is given as “sol”.

For `CC[C@H](C)[C@H](NC(=O)[C@H](Cc1ccc(O)cc1)NC(=O)[C@H](Cc1ccc(O)cc1)NC(=O)[C@@H]1CCCN1)C(=O)O` [PYYI] (H-PYYI-OH), the State result was “sol”.

`NCCCC[C@H](NC(=O)[C@H](Cc1ccccc1)NC(=O)[C@H](Cc1ccccc1)NC(=O)[C@@H](N)CCC(=O)O)C(=O)O` [EFFK] (H-EFFK-OH): the State result is on record as “sol”.

`CC[C@H](C)[C@H](NC(=O)[C@@H](NC(=O)[C@H](Cc1c[nH]cn1)NC(=O)[C@@H](N)CC(C)C)[C@@H](C)CC)C(=O)O` [LHII] (H-LHII-OH): the State result was “sol”.

As for `CC(C)C[C@H](NC(=O)[C@H](C)NC(=O)[C@@H](N)C(C)C)C(=O)N[C@H](C(=O)O)C(C)C` [VALV] (H-VALV-OH), the State result was “sol”.

Regarding `CC[C@H](C)[C@H](NC(=O)[C@@H](NC(=O)[C@H](C)N)C(C)C)C(=O)N[C@@H](CCC(N)=O)C(=O)O` [AVIQ] (H-AVIQ-OH), the State entry is given as “suspension”.

`CC[C@H](C)[C@H](NC(=O)[C@H](Cc1ccccc1)NC(=O)[C@@H](NC(=O)[C@@H](N)Cc1c[nH]c2ccccc12)C(C)C)C(=O)O` [WVFI] (H-WVFI-OH): the State result is given as “suspension”.

With `C[C@@H](O)[C@H](NC(=O)[C@H](Cc1ccccc1)NC(=O)[C@H](Cc1c[nH]c2ccccc12)NC(=O)[C@@H](N)CS)C(=O)O` [CWFT] (H-CWFT-OH), the State result is reported as “suspension”.

As to `CC(C)[C@H](N)C(=O)N[C@@H](Cc1ccccc1)C(=O)NCC(=O)N[C@H](C(=O)O)C(C)C` [VFGV] (H-VFGV-OH), the State result is given as “sol”.

Staying with this series, now noted: concentration at which the state was recorded: lowest of 30, 60, 90, 120 mM that gave a gel; 120 mM for non-gelating peptides.
With `CSCC[C@H](NC(=O)[C@H](CCSC)NC(=O)[C@H](Cc1ccccc1)NC(=O)[C@@H](N)C(C)C)C(=O)O` [VFMM] (H-VFMM-OH), the “Concentration” value turned out to be 120000 µM.

In the case of `C[C@H](N)C(=O)N[C@@H](C)C(=O)N[C@@H](C)C(=O)N[C@@H](C)C(=O)O` [AAAA] (H-AAAA-OH), the “Concentration” value came out at 120000 µM.

In the case of `CC[C@H](C)[C@H](NC(=O)[C@H](Cc1ccc(O)cc1)NC(=O)[C@H](Cc1ccc(O)cc1)NC(=O)[C@@H]1CCCN1)C(=O)O` [PYYI] (H-PYYI-OH), the “Concentration” value was found to be 120000 µM.

In the case of `NCCCC[C@H](NC(=O)[C@H](Cc1ccccc1)NC(=O)[C@H](Cc1ccccc1)NC(=O)[C@@H](N)CCC(=O)O)C(=O)O` [EFFK] (H-EFFK-OH), the “Concentration” value is 120000 µM.

For `CC[C@H](C)[C@H](NC(=O)[C@@H](NC(=O)[C@H](Cc1c[nH]cn1)NC(=O)[C@@H](N)CC(C)C)[C@@H](C)CC)C(=O)O` [LHII] (H-LHII-OH), the “Concentration” value is 120000 µM.

As to `CC(C)C[C@H](NC(=O)[C@H](C)NC(=O)[C@@H](N)C(C)C)C(=O)N[C@H](C(=O)O)C(C)C` [VALV] (H-VALV-OH), the “Concentration” value was 120000 µM.

Take `CC[C@H](C)[C@H](NC(=O)[C@@H](NC(=O)[C@H](C)N)C(C)C)C(=O)N[C@@H](CCC(N)=O)C(=O)O` [AVIQ] (H-AVIQ-OH): the “Concentration” value worked out at 120000 µM.

For the molecule `CC[C@H](C)[C@H](NC(=O)[C@H](Cc1ccccc1)NC(=O)[C@@H](NC(=O)[C@@H](N)Cc1c[nH]c2ccccc12)C(C)C)C(=O)O` [WVFI] (H-WVFI-OH), the “Concentration” value came to 120000 µM.

For `C[C@@H](O)[C@H](NC(=O)[C@H](Cc1ccccc1)NC(=O)[C@H](Cc1c[nH]c2ccccc12)NC(=O)[C@@H](N)CS)C(=O)O` [CWFT] (H-CWFT-OH), the “Concentration” value was 120000 µM.

On to `CC(C)[C@H](N)C(=O)N[C@@H](Cc1ccccc1)C(=O)NCC(=O)N[C@H](C(=O)O)C(C)C` [VFGV] (H-VFGV-OH), for which the “Concentration” value was 120000 µM.

Still in this series, the particulars now being: experimental gelation result of the synthesized peptide.
In turn, `CC(C)C[C@H](NC(=O)[C@H](C)NC(=O)[C@@H](N)C(C)C)C(=O)N[C@H](C(=O)O)C(C)C` [VALV] (H-VALV-OH) gave an EXP of 0.

Molecule `CC(C)C[C@H](NC(=O)[C@@H](NC(=O)[C@H](Cc1ccccc1)NC(=O)[C@@H](N)CCCCN)C(C)C)C(=O)O` [LYS-PHE-VAL-LEU] (H-KFVL-OH) displayed an EXP of 0.

The series is the same for the next values; noted with them: peptide concentration 120 mM; vial-inverting method; 1 = hydrogel, 0 = no hydrogel.
On to `CSCC[C@H](NC(=O)[C@H](CCSC)NC(=O)[C@H](Cc1ccccc1)NC(=O)[C@@H](N)C(C)C)C(=O)O` [VFMM] (H-VFMM-OH), for which the GELATION is on record as 1.

For the molecule `C[C@H](N)C(=O)N[C@@H](C)C(=O)N[C@@H](C)C(=O)N[C@@H](C)C(=O)O` [AAAA] (H-AAAA-OH), the GELATION stood at 0.

`CC[C@H](C)[C@H](NC(=O)[C@H](Cc1ccc(O)cc1)NC(=O)[C@H](Cc1ccc(O)cc1)NC(=O)[C@@H]1CCCN1)C(=O)O` [PYYI] (H-PYYI-OH) displayed a GELATION of 0.

Take `NCCCC[C@H](NC(=O)[C@H](Cc1ccccc1)NC(=O)[C@H](Cc1ccccc1)NC(=O)[C@@H](N)CCC(=O)O)C(=O)O` [EFFK] (H-EFFK-OH): the GELATION was determined as 0.

Molecule `CC[C@H](C)[C@H](NC(=O)[C@@H](NC(=O)[C@H](Cc1c[nH]cn1)NC(=O)[C@@H](N)CC(C)C)[C@@H](C)CC)C(=O)O` [LHII] (H-LHII-OH) had a GELATION of 0.

For the molecule `CC(C)C[C@H](NC(=O)[C@@H](NC(=O)[C@H](Cc1ccccc1)NC(=O)[C@@H](N)CCCCN)C(C)C)C(=O)O` [KFVL] (H-KFVL-OH), the GELATION is 0.

Molecule `CC(C)C[C@H](NC(=O)[C@H](C)NC(=O)[C@@H](N)C(C)C)C(=O)N[C@H](C(=O)O)C(C)C` [VALV] (H-VALV-OH) displayed a GELATION of 0.

Molecule `CC[C@H](C)[C@H](NC(=O)[C@@H](NC(=O)[C@H](C)N)C(C)C)C(=O)N[C@@H](CCC(N)=O)C(=O)O` [AVIQ] (H-AVIQ-OH) had a GELATION of 0.

Turning to `CC[C@H](C)[C@H](NC(=O)[C@H](Cc1ccccc1)NC(=O)[C@@H](NC(=O)[C@@H](N)Cc1c[nH]c2ccccc12)C(C)C)C(=O)O` [WVFI] (H-WVFI-OH), the GELATION came to 0.

The molecule `C[C@@H](O)[C@H](NC(=O)[C@H](Cc1ccccc1)NC(=O)[C@H](Cc1c[nH]c2ccccc12)NC(=O)[C@@H](N)CS)C(=O)O` [CWFT] (H-CWFT-OH) registered a GELATION of 0.

`C[C@@H](O)[C@H](N)C(=O)N[C@@H](CCC(N)=O)C(=O)N[C@@H](Cc1ccccc1)C(=O)N[C@@H](CO)C(=O)O` [TQFS] (H-TQFS-OH) returned a GELATION of 0.

Turning to `CC(C)[C@H](N)C(=O)N[C@@H](Cc1ccccc1)C(=O)NCC(=O)N[C@H](C(=O)O)C(C)C` [VFGV] (H-VFGV-OH), the GELATION turned out to be 0.

Another series in a line: Transmission electron microscope (negative staining) of peptide assemblies. The note with it: TEM, negative staining with uranyl acetate, 120 kV; line of the table gives 120 mM.
Description: We used the negative staining technique to observe the morphologies formed by peptides. A micropipette was used to load 10 μL of sample solution to a carbon-coated copper grid, and we used a piece of filter paper to remove the excess solution. After rinsing the grid with the deionized water, we used uranyl acetate to stain the sample for 1 minute and then rinsed the grid with deionized water again.
Regarding `CSCC[C@H](NC(=O)[C@H](CCSC)NC(=O)[C@H](Cc1ccccc1)NC(=O)[C@@H](N)C(C)C)C(=O)O` [VFMM] (H-VFMM-OH), the Morphology entry is “fibre”.

In the case of `C[C@H](N)C(=O)N[C@@H](C)C(=O)N[C@@H](C)C(=O)N[C@@H](C)C(=O)O` [AAAA] (H-AAAA-OH), the Morphology result was “blank”.

Take `CC[C@H](C)[C@H](NC(=O)[C@H](Cc1ccc(O)cc1)NC(=O)[C@H](Cc1ccc(O)cc1)NC(=O)[C@@H]1CCCN1)C(=O)O` [PYYI] (H-PYYI-OH): the Morphology result is given as “aggregates”.

Consider `NCCCC[C@H](NC(=O)[C@H](Cc1ccccc1)NC(=O)[C@H](Cc1ccccc1)NC(=O)[C@@H](N)CCC(=O)O)C(=O)O` [EFFK] (H-EFFK-OH), for which the Morphology result is “aggregates”.

With `CC[C@H](C)[C@H](NC(=O)[C@@H](NC(=O)[C@H](Cc1c[nH]cn1)NC(=O)[C@@H](N)CC(C)C)[C@@H](C)CC)C(=O)O` [LHII] (H-LHII-OH), the Morphology entry is “aggregates”.

Take `CC(C)C[C@H](NC(=O)[C@H](C)NC(=O)[C@@H](N)C(C)C)C(=O)N[C@H](C(=O)O)C(C)C` [VALV] (H-VALV-OH): the Morphology entry is on record as “aggregates”.

`CC[C@H](C)[C@H](NC(=O)[C@@H](NC(=O)[C@H](C)N)C(C)C)C(=O)N[C@@H](CCC(N)=O)C(=O)O` [AVIQ] (H-AVIQ-OH): the Morphology entry is on record as “aggregates”.

Regarding `CC[C@H](C)[C@H](NC(=O)[C@H](Cc1ccccc1)NC(=O)[C@@H](NC(=O)[C@@H](N)Cc1c[nH]c2ccccc12)C(C)C)C(=O)O` [WVFI] (H-WVFI-OH), the Morphology result is “aggregates”.

Consider `C[C@@H](O)[C@H](NC(=O)[C@H](Cc1ccccc1)NC(=O)[C@H](Cc1c[nH]c2ccccc12)NC(=O)[C@@H](N)CS)C(=O)O` [CWFT] (H-CWFT-OH), for which the Morphology result is listed as “aggregates”.
